Columns and labels:
Format in all cases: binding
[1] = oBBV-HPTS two component fluorescence assay, sucrose
Protocol: (§1) Urine has been analyzed for the permeability markers sucrose (stomach), lactulose and mannitol (small intestine) and sucralose (colon). The viologen oBBV was used with the fluorophore HPTS (Exc. 420 or 485 nm, Em 535 nm). Fluorescence was measured with a benchtop plate reader. HPTS is normally read at 420/535 nm, but performs well at 485/535 nm, matching FITC filter sets normally found in clinical labs. […] Lower limit of quantification (LLOQ) and dynamic range are suitable for typical urine samples.
(§2) Developing a degradation pathway of sucralose into a saccharide that consists of the hydroxyl groups is needed for boronic acid recognition, which allows for the molecular recognition of sucralose. Sucralose contains halogenated carbons, which are easily modified via a hydroxyl anion or radical to de-chlorinate sucralose to form a detectable saccharide. Based on literature precedence, sucralose is modified through advanced oxidation photolysis to generate a fructose sugar alcohol derivative of sucrose (Ref 38). […] This has been accomplished by generating hydroxyl anion and radicals via the Fenton chemical reaction (Ref 39) in the presence of sucralose, and upon reaction completion, the modified sucralose solution was tested against the oBBV-HPTS system. Using the disclosed two component system, it is confirmed that sucralose is modified.

[2] = oBBV-HPTS two component fluorescence assay, Fenton-modified sucralose; conditions: sucralose after Fenton reaction, 1 hr; sodium phosphate and HEPES buffer, 0.01% Triton-X100, pH 7.4 (FIG. 4)
Protocol: FIG. 4 is a graph showing the results of a proof of concept experiment to measure modified sucralose after 1 hr of reaction time. This study was performed with ortho bis boronic acid viologen (oBBV) in sodium phosphate and HEPES buffer 0.1M containing 0.01% Triton-X100, pH 7.4. The fluorescence intensity is the normalized intensity where F=fluorescence intensity after saccharide addition and Fo=fluorescence intensity of the quenched reporter dye.
Developing a degradation pathway of sucralose into a saccharide that consists of the hydroxyl groups is needed for boronic acid recognition, which allows for the molecular recognition of sucralose. […]
This has been accomplished by generating hydroxyl anion and radicals via the Fenton chemical reaction (Ref 39) in the presence of sucralose, and upon reaction completion, the modified sucralose solution was tested against the oBBV-HPTS system. Using our two component system, we have confirmed that sucralose can be modified and measured by adding increasing amounts of this modified saccharide, a significant fluorescence signal was obtained.
A solution of sucralose (20 mM) in the presence of ferrous iron (II) sulfate and hydrogen peroxide was allowed to stir for 1 hour and dilutions were made to determine if a fluorescence signal can be obtained. […]

[3] = oBBV-HPTS two component fluorescence assay, lactulose
Excerpt: (§3) Boronic acids form covalent bonds with the cis-1, 2-hydroxyl groups that are commonly found in saccharides. Based on this property, a two-component sensing system is developed, comprising a fluorescent dye that serves as the indicator unit and a boronic acid-appended viologen that serves a dual function as fluorescence quencher and saccharide receptor. Dye and viologen form a non-fluorescent ground state complex. Binding to a diol weakens the complex. Subsequent dissociation from the fluorescent dye results in an increase in fluorescence dependent on diol concentration.
as §1

[4] = oBBV-HPTS two component fluorescence assay, sucralose
Protocol: as §1, §2

[5] = oBBV-HPTS two component fluorescence assay, mannitol
Excerpt: as §3, §1

[6] = fluorophore HPTS, urine, Exc. 420 or 485 nm, Em 535 nm (FIG. 3)

## OB(O)c1ccccc1C[n+]1ccc(-c2cc[n+](Cc3ccccc3B(O)O)cc2)cc1.[Br-].[Br-] [oBBV, 4,4′-N,N′-bis-(benzyl-2-boronic acid)-dipyridinium dibromide]
[1]; tested in parallel with modified sucralose (FIG. 4)
  fluorescence signal with sucrose: no obtainable signal
[1]; urine (FIG. 3)
  de-quenching of HPTS fluorescence in the presence of sucrose: not
[2]
  fluorescence signal on adding increasing amounts of modified sucralose: increase in fluorescence signal
[3]; [6]
  sensitivity to lactulose: greatest preferential sensitivity
[3]; urine (FIG. 3)
  de-quenching of HPTS fluorescence in the presence of lactulose: selectively de-quenched
[4]; unmodified, tested in parallel with modified sucralose (FIG. 4)
  fluorescence signal with sucralose: no obtainable signal
[4]; urine (FIG. 3)
  de-quenching of HPTS fluorescence in the presence of sucralose: not
[5]; [6]
  sensitivity to mannitol: good sensitivity
[5]; urine (FIG. 3)
  de-quenching of HPTS fluorescence in the presence of mannitol: selectively de-quenched

Reference: patent publication US10274483B2, “Fluorescence method for sensing chlorinated disaccharides” (THE REGENTS OF THE UNIVERSITY OF CALIFORNIA, priority 2014, dated 2019)
